In US20070128217A1 (priority 2003, published 2007):

Legend:
[1] = system: antibodies in sera from SARS patients (sera 1a, 1b, 2, 6, 37, 62, London, SARS-yellow, SARS-green); format: binding, human; design: Binding of serum 6 to linear peptides of protein X1 of SARS-CoV Urbani / Binding of serum 37 to linear peptides of protein X1 of SARS-CoV Urbani / Binding of serum 6 to looped/cyclic peptide (PEPSCAN-ELISA) / Binding of serum 37 to looped/cyclic peptide (PEPSCAN-ELISA) / Binding of serum 37 to looped/cyclic peptides of protein X1 of SARS-CoV Urbani / Binding of serum 6 to linear peptides of protein X2 / Binding of serum 37 to linear peptides of protein X2 / Binding of serum 37 to looped/cyclic peptides of protein X2 of SARS-CoV Urbani / Binding of serum 6 to linear peptides of protein M of SARS-CoV Urbani / Binding of serum 37 to linear peptides of protein M of SARS-CoV Urbani / Binding of serum 6 to looped/cyclic peptides of protein M of SARS-CoV Urbani / Binding of serum 37 to looped/cyclic peptides of protein M of SARS-CoV Urbani / Binding of serum 6 to linear peptides of protein X3 of SARS-CoV Urbani / Binding of serum 37 to linear peptides of protein X3 of SARS-CoV Urbani / Binding of serum 37 to looped/cyclic peptides of protein X3 of SARS-CoV Urbani / Binding of serum 6 to linear peptides of protein X4 of SARS-CoV Urbani / Binding of serum 37 to linear peptides of protein X4 of SARS-CoV Urbani / Binding of serum 37 to looped/cyclic peptides of protein X4 of SARS-CoV Urbani / Binding of serum 6 to linear peptides of protein X5 of SARS-CoV Urbani / Binding of serum 37 to linear peptides of protein X5 of SARS-CoV Urbani / Binding of serum 37 to looped/cyclic peptides of protein X5 of SARS-CoV Urbani / Binding of serum 6 to linear peptides of protein N of SARS-CoV Urbani / Binding of serum 37 to linear peptides of protein N of SARS-CoV Urbani / Binding of serum 6 to linear peptide (PEPSCAN-ELISA) / Binding of serum 1a to looped/cyclic peptides of protein N of SARS-CoV Urbani / Binding of serum 1b to looped/cyclic peptides of protein N of SARS-CoV Urbani / Binding of serum 2 to looped/cyclic peptides of protein N of SARS-CoV Urbani / Binding of serum 6 to looped/cyclic peptides of protein N of SARS-CoV Urbani / Binding of serum 37 to looped/cyclic peptides of protein N of SARS-CoV Urbani / Binding of serum 62 to looped/cyclic peptides of protein N of SARS-CoV Urbani / Binding of serum London to looped/cyclic peptides of protein N of SARS-CoV Urbani / Binding of serum SARS-green to looped/cyclic peptides of protein N of SARS-CoV Urbani: unit not given here
[2] = system: control sera (pooled serum of ten healthy LUMC hospital workers; commercial negative donor pooled serum from the Dutch bloodbank); format: binding, human; design: Binding of Control serum LUMC to linear peptides / Binding of Control serum Blood-bank to linear peptides / Binding of Control serum LUMC to looped peptides / Binding of Control Serum Blood-Bank to Looped peptides / Binding of Control serum LUMC to linear peptides of the protein M of SARS-CoV Urbani / Binding of Control serum Blood-bank to linear peptides of the protein M of SARS-CoV Urbani / Binding of Control serum LUMC to looped peptides of the protein M of SARS-CoV Urbani / Binding of Control Serum Blood-Bank to Looped peptides of the protein M of SARS-CoV Urbani: unit not given here
[3] = system: rabbit serum obtained by immunizing a rabbit with the SARS-CoV strain Frankfurt 1; format: binding; design: Binding of a rabbit serum to linear peptides / Binding of a rabbit serum to looped peptides / Rabbit serum linear peptides / Rabbit serum looped peptides / Binding of a rabbit serum to linear peptides of protein N of SARS-CoV Urbani (Rabbit serum linear peptides) / Binding of a rabbit serum to looped/cyclic peptides of protein N of SARS-CoV Urbani (Rabbit serum looped peptides): unit not given here

## AMACIVGLMWLSYFV
[1]
  Binding of serum 1a to linear peptides of protein M of SARS-CoV Urbani: 0.7
  Binding of serum 1a to looped/cyclic peptides of protein M of SARS-CoV Urbani: 0.7
  Binding of serum 1b to linear peptides of protein M of SARS-CoV Urbani: 0.5
  Binding of serum 1b to looped/cyclic peptides of protein M of SARS-CoV Urbani: 0.7
  Binding of serum 2 to linear peptides of protein M of SARS-CoV Urbani: 0.6
  Binding of serum 2 to looped/cyclic peptides of protein M of SARS-CoV Urbani: 0.6
  Binding of serum 6 to linear peptides of protein M of SARS-CoV Urbani: 0.4
  Binding of serum 6 to looped/cyclic peptides of protein M of SARS-CoV Urbani: 0.9
  Binding of serum 37 to linear peptides of protein M of SARS-CoV Urbani: 0.6
  Binding of serum 37 to looped/cyclic peptides of protein M of SARS-CoV Urbani: 0.6
  Binding of serum 62 to linear peptides of protein M of SARS-CoV Urbani: 0.6
  Binding of serum 62 to looped/cyclic peptides of protein M of SARS-CoV Urbani: 0.5
  Binding of serum London to linear peptides of protein M of SARS-CoV Urbani: 0.4
  Binding of serum London to looped/cyclic peptides of protein M of SARS-CoV Urbani: 0.2
  Binding of serum SARS-green to linear peptides of protein M of SARS-CoV Urbani: 0.2
  Binding of serum SARS-green to looped/cyclic peptides of protein M of SARS-CoV Urbani: 0.4
  Binding of serum SARS-yellow to linear peptides of protein M of SARS-CoV Urbani: 0.1
  Binding of serum SARS-yellow to looped/cyclic peptides of protein M of SARS-CoV Urbani: 0.6
[2]
  Binding of Control Serum Blood-Bank to Looped peptides of the protein M of SARS-CoV Urbani: 0.6
  Binding of Control serum Blood-bank to linear peptides of the protein M of SARS-CoV Urbani: 0.6
  Binding of Control serum LUMC to linear peptides of the protein M of SARS-CoV Urbani: 0.3
  Binding of Control serum LUMC to looped peptides of the protein M of SARS-CoV Urbani: 0.7
[3]
  Rabbit serum linear peptides: 0.4
  Rabbit serum looped peptides: 0.1

## QLLEQWNLVIGFLFL
[1]
  Binding of serum 1a to linear peptides of protein M of SARS-CoV Urbani: 0.7
  Binding of serum 1a to looped/cyclic peptides of protein M of SARS-CoV Urbani: 0.5
  Binding of serum 1b to linear peptides of protein M of SARS-CoV Urbani: 0.4
  Binding of serum 1b to looped/cyclic peptides of protein M of SARS-CoV Urbani: 0.5
  Binding of serum 2 to linear peptides of protein M of SARS-CoV Urbani: 0.5
  Binding of serum 2 to looped/cyclic peptides of protein M of SARS-CoV Urbani: 0.4
  Binding of serum 6 to linear peptides of protein M of SARS-CoV Urbani: 0.4
  Binding of serum 6 to looped/cyclic peptides of protein M of SARS-CoV Urbani: 0.5
  Binding of serum 37 to linear peptides of protein M of SARS-CoV Urbani: 0.6
  Binding of serum 37 to looped/cyclic peptides of protein M of SARS-CoV Urbani: 0.5
  Binding of serum 62 to linear peptides of protein M of SARS-CoV Urbani: 0.6
  Binding of serum 62 to looped/cyclic peptides of protein M of SARS-CoV Urbani: 0.4
  Binding of serum London to linear peptides of protein M of SARS-CoV Urbani: 0.4
  Binding of serum London to looped/cyclic peptides of protein M of SARS-CoV Urbani: 0.2
  Binding of serum SARS-green to linear peptides of protein M of SARS-CoV Urbani: 0.2
  Binding of serum SARS-green to looped/cyclic peptides of protein M of SARS-CoV Urbani: 0.3
  Binding of serum SARS-yellow to linear peptides of protein M of SARS-CoV Urbani: 0.0
  Binding of serum SARS-yellow to looped/cyclic peptides of protein M of SARS-CoV Urbani: 0.7
[2]
  Binding of Control Serum Blood-Bank to Looped peptides of the protein M of SARS-CoV Urbani: 0.5
  Binding of Control serum Blood-bank to linear peptides of the protein M of SARS-CoV Urbani: 0.5
  Binding of Control serum LUMC to linear peptides of the protein M of SARS-CoV Urbani: 0.3
  Binding of Control serum LUMC to looped peptides of the protein M of SARS-CoV Urbani: 0.7
[3]
  Rabbit serum linear peptides: 0.2
  Rabbit serum looped peptides: 0.0

## EAQFLYLYALIYFLQ
[1]
  Binding of serum 1a to linear peptides of protein X1 of SARS-CoV Urbani: 0.7
  Binding of serum 1a to looped/cyclic peptide (PEPSCAN-ELISA): 0.5
  Binding of serum 1b to linear peptides of protein X1 of SARS-CoV Urbani: 0.4
  Binding of serum 1b to looped/cyclic peptide (PEPSCAN-ELISA): 0.3
  Binding of serum 2 to linear peptides of protein X1 of SARS-CoV Urbani: 0.6
  Binding of serum 2 to looped/cyclic peptide (PEPSCAN-ELISA): 0.4
  Binding of serum 6 to linear peptides of protein X1 of SARS-CoV Urbani: 0.4
  Binding of serum 6 to looped/cyclic peptide (PEPSCAN-ELISA): 0.2
  Binding of serum 37 to linear peptides of protein X1 of SARS-CoV Urbani: 0.5
  Binding of serum 37 to looped/cyclic peptide (PEPSCAN-ELISA): 0.5
  Binding of serum 62 to linear peptides of protein X1 of SARS-CoV Urbani: 0.4
  Binding of serum 62 to looped/cyclic peptide (PEPSCAN-ELISA): 0.5
  Binding of serum London to linear peptides of protein X1 of SARS-CoV Urbani: 0.2
  Binding of serum London to looped/cyclic peptide (PEPSCAN-ELISA): 0.2
  Binding of serum SARS-green to linear peptides of protein X1 of SARS-CoV Urbani: 0.1
  Binding of serum SARS-green to looped/cyclic peptide (PEPSCAN-ELISA): 0.2
  Binding of serum SARS-yellow to linear peptides of protein X1 of SARS-CoV Urbani: 0.2
  Binding of serum SARS-yellow to looped/cyclic peptide (PEPSCAN-ELISA): 0.3
[2]
  Binding of Control Serum Blood-Bank to Looped peptides: 0.4
  Binding of Control serum Blood-bank to linear peptides: 0.3
  Binding of Control serum LUMC to linear peptides: 0.5
  Binding of Control serum LUMC to looped peptides: 0.5
[3]
  Binding of a rabbit serum to linear peptides: 0.1
  Binding of a rabbit serum to looped peptides: 0.5

## LAWIMLLQFAYSNRN
[1]
  Binding of serum 1a to linear peptides of protein M of SARS-CoV Urbani: 0.6
  Binding of serum 1a to looped/cyclic peptides of protein M of SARS-CoV Urbani: 0.7
  Binding of serum 1b to linear peptides of protein M of SARS-CoV Urbani: 0.5
  Binding of serum 1b to looped/cyclic peptides of protein M of SARS-CoV Urbani: 0.7
  Binding of serum 2 to linear peptides of protein M of SARS-CoV Urbani: 0.4
  Binding of serum 2 to looped/cyclic peptides of protein M of SARS-CoV Urbani: 0.4
  Binding of serum 6 to linear peptides of protein M of SARS-CoV Urbani: 0.2
  Binding of serum 6 to looped/cyclic peptides of protein M of SARS-CoV Urbani: 0.7
  Binding of serum 37 to linear peptides of protein M of SARS-CoV Urbani: 0.7
  Binding of serum 37 to looped/cyclic peptides of protein M of SARS-CoV Urbani: 0.6
  Binding of serum 62 to linear peptides of protein M of SARS-CoV Urbani: 0.7
  Binding of serum 62 to looped/cyclic peptides of protein M of SARS-CoV Urbani: 0.6
  Binding of serum London to linear peptides of protein M of SARS-CoV Urbani: 0.2
  Binding of serum London to looped/cyclic peptides of protein M of SARS-CoV Urbani: 0.2
  Binding of serum SARS-green to linear peptides of protein M of SARS-CoV Urbani: 0.3
  Binding of serum SARS-green to looped/cyclic peptides of protein M of SARS-CoV Urbani: 0.4
  Binding of serum SARS-yellow to linear peptides of protein M of SARS-CoV Urbani: 0.0
  Binding of serum SARS-yellow to looped/cyclic peptides of protein M of SARS-CoV Urbani: 0.3
[2]
  Binding of Control Serum Blood-Bank to Looped peptides of the protein M of SARS-CoV Urbani: 0.6
  Binding of Control serum Blood-bank to linear peptides of the protein M of SARS-CoV Urbani: 0.6
  Binding of Control serum LUMC to linear peptides of the protein M of SARS-CoV Urbani: 0.2
  Binding of Control serum LUMC to looped peptides of the protein M of SARS-CoV Urbani: 0.6
[3]
  Rabbit serum linear peptides: 0.8
  Rabbit serum looped peptides: 0.1

## AFQHQNSKKTTKLVV
[1]
  Binding of serum 1a to linear peptides of protein X2: 0.6
  Binding of serum 1a to looped/cyclic peptides of protein X2 of SARS-CoV Urbani: 0.5
  Binding of serum 1b to linear peptides of protein X2: 0.5
  Binding of serum 1b to looped/cyclic peptides of protein X2 of SARS-CoV Urbani: 0.5
  Binding of serum 2 to linear peptides of protein X2: 0.6
  Binding of serum 2 to looped/cyclic peptides of protein X2 of SARS-CoV Urbani: 0.4
  Binding of serum 6 to linear peptides of protein X2: 0.9
  Binding of serum 6 to looped/cyclic peptides of protein X2 of SARS-CoV Urbani: 0.4
  Binding of serum 37 to linear peptides of protein X2: 0.8
  Binding of serum 37 to looped/cyclic peptides of protein X2 of SARS-CoV Urbani: 0.5
  Binding of serum 62 to linear peptides of protein X2: 0.4
  Binding of serum 62 to looped/cyclic peptides of protein X2 of SARS-CoV Urbani: 0.6
  Binding of serum London to linear peptides of protein X2: 0.4
  Binding of serum London to looped/cyclic peptides of protein X2 of SARS-CoV Urbani: 0.2
  Binding of serum SARS-green to linear peptides of protein X2: 0.2
  Binding of serum SARS-green to looped/cyclic peptides of protein X2 of SARS-CoV Urbani: 0.3
  Binding of serum SARS-yellow to linear peptides of protein X2: 0.7
  Binding of serum SARS-yellow to looped/cyclic peptides of protein X2 of SARS-CoV Urbani: 0.5
[2]
  Binding of Control Serum Blood-Bank to Looped peptides: 0.7
  Binding of Control serum Blood-bank to linear peptides: 0.6
  Binding of Control serum LUMC to linear peptides: 0.7
  Binding of Control serum LUMC to looped peptides: 0.6
[3]
  Recognition of the peptide by the rabbit serum: recognized
